US20250059156A1, “THERAPEUTIC ALKALOID COMPOUNDS” (Sensorium Therapeutics, Inc., priority 2022, published 2025)

Key:
[1] = tested on: C57/Bl6 mice; assay: Behavioral evaluation assay (SmartCube test); type: in vivo; conditions: FIG. 1
Description: The CNS-like activity of test compounds after acute intraperitoneal administration was evaluated in naïve C57/Bl6 mice using the SmartCube® test.
Male C57/Bl6 mice from Taconic Laboratories (Germantown, NY) were used. Upon receipt, mice were group-housed in Optimice® ventilated cages with 4 mice per cage. Mice were acclimated to the colony room for at least one week prior to test, and subsequently tested at approximately 8-9 weeks of age. All animals were examined, handled, and weighed prior to initiation of the study to assure adequate health and suitability and to minimize nonspecific stress associated with manipulation. During the course of the study, 12/12 light/dark cycles were maintained. The room temperature was 20-23° C. with a relative humidity maintained between 30-70%. Chow and water were provided ad libitum for the duration of the study.
Test compounds were formulated in 5% Pharmasolve, 30% P3 (1:1:1 PEG200, PEG400, propylene glycol) and 65% saline. […]
For class and subclass analysis, a reference dataset has been built from hundreds of drug doses in multiple drug classes plus a control group. […] Multiple analyses of the data was performed to quantitatively produce independent predictions of drug class, and drug subclass. The behavioral signatures of the test drug were evaluated using these classifiers to predict potential therapeutic utility.

[2] = target: 5-HT transporter (SERT) (Homo sapiens (Human), UniProt P31645); conditions: concentration response curve; cited from earlier work

Structure (SMILES) | behavioral phenotype compared to Compound 001 [1] | 5-HT transporter (SERT) nH [2]
COc1ccc([C@@]23CC[C@@H](O)C[C@@H]2N(C)CC3)cc1OC [Compound 018, (3aS,6R,7aS)-3a-(3,4-dimethoxyphenyl)-1-methyloctahydro-1H-indol-6-ol] | different behavioral phenotype classification | –
COc1ccc([C@@]23C=CC(=O)C[C@@H]2N(C)CC3)cc1OC [Mesembrenone] | – | 1.0
